Source: patent US5445951A, “Regioselective enzymatic deacylation of sucrose esters in anhydrous organic media” (priority 1993, dated 1995)

Key:
[1] = biological target: T1, alcalase (Bacillus licheniformis, UniProt P00780); assay: Nucleophile screening for alcalase catalyzed deacetylation of SOA in diisopropyl ether; type: biochemical; details: for increase in conversion relative to reaction with no added nucleophile: 200 mM
T1 construct: purchased Novo Nordisk (gift)
T1 sequence (P00780 106-379): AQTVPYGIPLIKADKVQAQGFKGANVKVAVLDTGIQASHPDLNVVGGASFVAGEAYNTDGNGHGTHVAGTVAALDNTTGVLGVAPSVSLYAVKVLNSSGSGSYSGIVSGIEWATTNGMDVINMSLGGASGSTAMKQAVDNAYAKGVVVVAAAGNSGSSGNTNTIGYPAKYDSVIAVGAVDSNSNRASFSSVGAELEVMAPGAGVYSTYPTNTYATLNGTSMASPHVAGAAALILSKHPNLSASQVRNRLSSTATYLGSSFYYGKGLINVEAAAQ
Procedure: (§1) Nucleophile screening for alcalase, proleather or lipase AP 12 catalyzed deacetylation of SOA. A scintillation vial was charged successively with 100 mg of powdered enzyme prepared as described, 1.0 ml of 20 mM sucrose octaacetate (SOA) and 200 mM of the nucleophile dissolved in diisopropyl ether. Following a 5 sec sonication, the vial was incubated in a controlled-temperature shaker at 45° C. and 300 RPM for 66 hrs. A 200 μl aliquot of the reaction mixture was withdrawn and centrifuged. The supernatant was collected and evaporated under a stream of N2. The residue was reconstituted in 200 μl of acetonitrile and 10 μl of this solution was analyzed by HPLC. For screening concentration effects on enzyme activity, the same protocol was followed except the nucleophile concentration was varied from 0 to 2000 mM.

[2] = test system: proleather; assay: Nucleophile screening for proleather catalyzed deacetylation of SOA in diisopropyl ether; type: biochemical, Bacillus subtilis; details: for % conv: 66 hrs
Procedure: as §1

[3] = test system: lipase AP 12; assay: Nucleophile screening for lipase AP 12 catalyzed deacetylation of SOA in diisopropyl ether; type: biochemical, Aspergillus niger; details: for % conv: 66 hrs
Procedure: as §1

[4] = test system: lipase AY 30; assay: Effect of the solvent on lipase AY 30 catalyzed deacylation of SOP; type: biochemical, Candida cylindracea; details: for ShexaP (4.2 min) / SheptaP's (8.9 min) / SheptaP's (9.4 min) / SheptaP's ([…]): lipase AY 30, 24 hrs; for ShexaP (4.2 min): HPLC peak 4.2 min; for SheptaP's (8.9 min): HPLC peak 8.9 min; for SheptaP's (9.4 min): HPLC peak 9.4 min; for SheptaP's ([…]): HPLC peak […]; for SOA: lipase AY 30, solvent as labelled, 200 mM butanol, 24 hrs, peak 21.4 min; for SheptaP's ([…]): HPLC peak 8.2 min
Procedure: (§2) Identical SOP deacylations were performed with lipase AY 30 or protease type XXIII in numerous anhydrous organic solvents, as shown in Tables 12 and 13.
(§3) Solvent screening for SOP deacylation. A scintillation vial was charged successively with 100 mg of lipase AY 30 or protease type XXIII as described and 1.0 ml of 20 mM sucrose octapropionate (SOP) and 200mM butanol dissolved in an organic solvent. Following a 5 sec sonication, the vial was incubated in a controlled-temperature shaker at 45° C. and 300 RPM for 24 hrs. A 200 μl aliquot of the reaction mixture was withdrawn and centrifuged. The supernatant was collected and evaporated under a stream of N2. The residue was reconstituted in 200 μl of acetonitrile and 10 μl of this solution was analyzed by HPLC.

[5] = test system: protease type XXIII; assay: Effect of the solvent on protease type XXIII catalyzed deacylation of SOP; type: biochemical, Aspergillus oryzae; details: 24 hrs; for SheptaP's (8.3 min): HPLC peak 8.3 min; for SheptaP's (8.9 min): HPLC peak 8.9 min; for SheptaP's (9.9 min): HPLC peak 9.9 min; for SOP: solvent as labelled
Procedure: as §2, §3

[6] = test system: lipase AY 30; assay: Effect of the solvent on lipase AY 30 SOA deacetylation; type: biochemical, Candida cylindracea; details: lipase AY 30, solvent as labelled, 24 hrs
Procedure: Identical enzyme catalyzed SOA deacetylations were run in numerous anhydrous solvents. After 24 hrs incubation an aliquot was analyzed by HPLC.
as §3, with “Enzyme and Solvent” for “Solvent”, “Screening” for “screening”, “SOA Deacetylation.” for “SOP deacylation.”, “powdered enzyme as received” for “lipase AY 30”, “prepared” for “protease type XXIII”, “octaacetate (SOA)” for “octapropionate (SOP) and 200mM butanol”

[7] = nucleophile 200 mM, peak height ratio 1'-OH / 6'-OH heptaacetate
[8] = lipase AP 12, nucleophile 200 mM
[9] = methanol 20 mM, peak height ratio
[10] = methanol 50 mM, peak height ratio
[11] = methanol 100 mM, peak height ratio
[12] = methanol 200 mM (Table 10), peak height ratio
[13] = methanol 500 mM, peak height ratio
[14] = methanol 1000 mM, peak height ratio
[15] = methanol 2000 mM, peak height ratio

In the case of `OCc1ccccc1` [benzyl alcohol], the regiochem [1, 7] was 8.1, the “% conv” value ([2]; nucleophile 200 mM) was 46.8% and the regiochem [2, 7] was 6.6. The “% conv” value [3, 8] was 22.5%.

With `CCCCO` [butanol, n-butanol] the regiochem [1, 7] was 7.4, the “% conv” value ([2]; nucleophile 200 mM) was 44.4% and the regiochem [2, 7] was 4.8. The “% conv” value [3, 8] was 25.7%.

With `CO` [methanol] the “increase in conversion relative to reaction with no added nucleophile” value [1] was “at least 25%”, the “enhancement in overall conversion” value ([1]; 0.5M methanol, in words) was “modest enhancements in overall conversion” and the regiochem [1, 9] was 7.4. For the same compound, the regiochem [1, 10] was 8.3, the regiochem [1, 11] was 8.1 and the regiochem [1, 12] was 8.6. It also gave a regiochem [1, 13] of 8.2, a regiochem [1, 14] of 5.6 and a regiochem [1, 15] of 7.1. For the same compound, the regiochem [1, 7] was 8.6, the increase in conversion ([2]; 1.0M methanol) was 120% and the “% conv” value ([2]; methanol 20 mM) was 38.1%. For the same compound, the regiochem [2, 9] was 4.8, the “% conv” value ([2]; methanol 50 mM) was 41.2% and the regiochem [2, 10] was 5.9. For the same compound, the “% conv” value ([2]; methanol 100 mM) was 44.6%, the regiochem [2, 11] was 6.6 and the “% conv” value ([2]; methanol 200 mM (Table 10)) was 49.4%. The regiochem [2, 12] was 7.9, the “% conv” value ([2]; methanol 500 mM) was 65.4% and the regiochem [2, 13] was 12.4. The “% conv” value ([2]; methanol 1000 mM) was 71.1%, the regiochem [2, 14] was 12.6 and the “% conv” value ([2]; methanol 2000 mM) was 66.8%. The regiochem [2, 15] was 11.5, the “% conv” value ([2]; nucleophile 200 mM) was 53.8% and the regiochem [2, 7] was 8.4. The “enhancement in overall conversion” value ([3]; lipase AP 12, 1.0M methanol, in words) was “modest enhancements in overall conversion”, the “% conv” value ([3]; lipase AP 12, methanol 20 mM) was 22.4% and the “% conv” value ([3]; lipase AP 12, methanol 50 mM) was 23.5%. The “% conv” value ([3]; lipase AP 12, methanol 100 mM) was 25.7%, the “% conv” value ([3]; lipase AP 12, methanol 200 mM (Table 10)) was 24.0% and the “% conv” value ([3]; lipase AP 12, methanol 500 mM) was 31.3%. For the same compound, the “% conv” value ([3]; lipase AP 12, methanol 1000 mM) was 33.4%, the “% conv” value ([3]; lipase AP 12, methanol 2000 mM) was 21.3% and the “% conv” value [3, 8] was 28.2%.

In the case of `OCCC1CCCCN1` (stereo not shown) [2-piperidineethanol], the regiochem [1, 7] was 8.6, the “% conv” value ([2]; nucleophile 200 mM) was 41.3% and the regiochem [2, 7] was 5.1. For the same compound, the “% conv” value [3, 8] was 10.4%.

With `CCC(C)=O` [butanone] the “ShexaP (4.2 min)” value [4] was 0%, the “SheptaP's (8.9 min)” value [4] was 0% and the “SheptaP's (9.4 min)” value [4] was 0.2%. The “SheptaP's ([…])” value [4] was 0.9%, the SOA [4] was 98.9% and the “SheptaP's (8.3 min)” value [5] was 1.0%. The “SheptaP's (8.9 min)” value [5] was 0%, the “SheptaP's (9.9 min)” value [5] was 0.2% and the SOP [5] was 98.8%.

`OCC1CCCCC1` [cyclohexylmethanol] was tested, and the regiochem [1, 7] was 8.1, the “% conv” value ([2]; nucleophile 200 mM) was 42.8% and the regiochem [2, 7] was 4.4. The “% conv” value [3, 8] was 24.8%.

For `CC#N` [acetonitrile], the SOA [6] was 98.6%, the SheptaA [6] was 1.4% and the ShexaA [6] was 0%. The “ShexaP (4.2 min)” value [4] was 0%, the “SheptaP's (8.9 min)” value [4] was 0% and the “SheptaP's (9.4 min)” value [4] was 0.2%. For the same compound, the “SheptaP's ([…])” value [4] was 1.1%, the SOA [4] was 98.7% and the “SheptaP's (8.3 min)” value [5] was 1.1%. The “SheptaP's (8.9 min)” value [5] was 0%, the “SheptaP's (9.9 min)” value [5] was 0.5% and the SOP [5] was 98.4%.

`CCCO` [propanol] was tested, and the regiochem [1, 7] was 8.8, the “% conv” value ([2]; nucleophile 200 mM) was 46.4% and the regiochem [2, 7] was 5.3. The “% conv” value [3, 8] was 26.2%.

For `OC1CCCCC1` [cyclohexanol], the SOA [6] was 96.8%, the SheptaA [6] was 2.9% and the ShexaA [6] was 0.3%. The regiochem [1, 7] was 8.0, the “% conv” value ([2]; nucleophile 200 mM) was 38.2% and the regiochem [2, 7] was 3.9. The “% conv” value [3, 8] was 25.0%.

`CC(C)=O` [acetone] showed an SOA [6] of 98.6%, a SheptaA [6] of 1.4% and a ShexaA [6] of 0%. The “ShexaP (4.2 min)” value [4] was 0%, the “SheptaP's (8.9 min)” value [4] was 0% and the “SheptaP's (9.4 min)” value [4] was 0.1%. The “SheptaP's ([…])” value [4] was 1.2%, the SOA [4] was 98.7% and the “SheptaP's (8.3 min)” value [5] was 0.7%. The “SheptaP's (8.9 min)” value [5] was 0%, the “SheptaP's (9.9 min)” value [5] was 0.2% and the SOP [5] was 99.1%.

With `OCCc1ccccc1` [phenethyl alcohol] the regiochem [1, 7] was 7.3, the “% conv” value ([2]; nucleophile 200 mM) was 51.5% and the regiochem [2, 7] was 5.3. For the same compound, the “% conv” value [3, 8] was 25.7%.

For `CC(C)NC(C)C` [diisopropylamine], the “increase in conversion relative to reaction with no added nucleophile” value [1] was “at least 25%”, the regiochem [1, 7] was 9.5 and the “% conv” value ([2]; nucleophile 200 mM) was 37.3%. The regiochem [2, 7] was 4.9 and the “% conv” value [3, 8] was 3.2%.

With `CCO` [ethanol] the regiochem [1, 7] was 7.5, the “% conv” value ([2]; nucleophile 200 mM) was 47.7% and the regiochem [2, 7] was 5.6. The “% conv” value [3, 8] was 26.7%.
